According to patent US8288393B2, “Nitrogen-containing heterocyclic compound and pest control agent” (Nippon Soda Co., Ltd., priority 2007, dated 2012):

What was measured:
[1] = tested on: Tetranychus urticae resistant to organic phosphorous agents; assay: Efficacy against Tetranychus urticae (spray on kidney bean plants); assay type: in vivo; conditions: 125 ppm wettable powder sprayed on kidney bean plants, female adults, 25° C., 3 days later
From the text: After inoculating the first true leaves of kidney bean plants planted in a no. 3 pot for which 7 to 10 days had elapsed since germination with female adult Tetranychus urticae resistant to organic phosphorous agents, a chemical liquid diluted with water to a compound concentration of 125 ppm was sprayed onto the kidney bean plants in accordance with the formula of the wettable powder indicated in the aforementioned Preparation Example 1. The kidney bean plants were placed in a constant temperature chamber at a temperature of 25° C. and humidity of 65% and insect mortality rate was investigated 3 days later. The test was repeated twice.

Spodoptera litura = assay: Efficacy against Spodoptera litura (cabbage leaf dip); assay type: in vivo; conditions: 125 ppm emulsion, cabbage leaves immersed, 2nd instar larvae, 25° C., 5 days later
Protocol: (§1) The emulsion indicated in the aforementioned Preparation Example 2 was diluted with water to a compound concentration of 125 ppm in accordance with the formula thereof. After immersing cabbage leaves in the chemical liquid for 30 seconds and allowing to air dry, the cabbage leaves were placed in a Petri dish lined with filter paper and inoculated with five 2nd instar Spodoptera litura larvae. A glass cover was placed over the Petri dish, the dish was placed in a constant temperature chamber at a temperature of 25° C. and humidity of 65%, and viability was investigated 5 days later followed by determination of insect mortality rate. The test was repeated twice.

Pseudaletia separata = assay: Efficacy against Pseudaletia separata (corn leaf dip); assay type: in vivo; conditions: 125 ppm wettable powder, corn leaves immersed, 2nd instar larvae, 25° C., 5 days later
Protocol: as §1, with “The wettable powder” for “The emulsion”, “Example 1” for “Example 2”, “immersing corn” for “immersing cabbage”, “the corn” for “the cabbage”, “instar Pseudaletia separata” for “instar Spodoptera litura”

Aphis gossypii = assay: Efficacy against Aphis gossypii (spray on infested cucumber plants); assay type: in vivo; conditions: 125 ppm emulsion sprayed on cucumber plants infested with nymphs, 25° C., 5 days later
From the text: Cucumber plants planted in a no. 3 pot for which 10 days had elapsed since germination were inoculated with adult Aphis gossypii. The adult insects were removed after 1 day, and a chemical liquid diluted with water to a compound concentration of 125 ppm was sprayed onto the cucumber plants infested with nymphs laid by the adults in accordance with the emulsion formula indicated in the aforementioned Preparation Example 2. The cucumber plants were placed in a constant temperature chamber at a temperature of 25° C. and humidity of 65% and insect viability was investigated 5 days later followed by determination of insect mortality rate. The test was repeated twice.

Culex pipiens molestus = assay: Efficacy against Culex pipiens molestus (larvae in water); conditions: in vivo
Protocol: 0.225 ml of distilled water containing 10 Culex pipiens molestus larvae 1 day after hatching and aquarium fish food (TetraMin, Tetra Japan) were placed in a 0.3 ml polystyrene test container.
The compounds were prepared as 1% solutions using DMSO (containing 0.5% Tween 20), and further diluted to 0.01% with distilled water. 0.025 ml of the diluted chemical liquid were added to the test container containing the Culex pipiens molestus larvae followed by stirring (final compound concentration: 0.001%).
Insect mortality rates were invested 2 days after allowing to stand at 25° C. The test was repeated twice.

## Cc1cc(Cl)ccc1N=CN(C)C [chlordimeform]
[1]
  insect mortality rate: 40%
Spodoptera litura
  insect mortality rate: 40%
Pseudaletia separata
  insect mortality rate: 40%

## Cc1nc(N(C)C)nc(OC(=O)N(C)C)c1C [pirimicarb]
Aphis gossypii
  insect mortality rate: 9%

## N-{[5-(3,5-dichlorophenyl)-5-trifluoromethyl-4,5-dihydroisoxazol-3-yl]indan-1-yl}-propionic acid amide [1-6]
Culex pipiens molestus
  insect mortality rate: ≥ 90%
